Residues, ends and D or L forms follow the SMILES beside them.
Assays:
T1R knockout mice [1] = assay: Brief access taste test (lick rate relative to control) in wild-type and T1R knockout mice; type: in vivo, mouse; details: for behavioral responses, effect of T1R knockouts: T1R1, T1R2, T1R3 knockout versus wild-type
From the text: Two complementary strategies were used to assay the taste responses of the genetically modified mice. First, we recorded tastant-induced action potentials from one of the major nerves innervating taste receptor cells of the tongue (chorda tympani). This physiological assay monitors the activity of the taste system at the periphery, and provides a measure of taste receptor cell function. Second, we examined taste behavior by measuring taste-choices in standard long-term two-bottle intake preference assays, or by direct counting of immediate licking responses in a multi-channel gustometer (Glendinning, J. I. et al., Chem Senses, 27, 461-474 (2002); Zhang, Y. et al., Cell, 112, 293-301 (2003); see Experimental Procedures). This second method relies on very short exposures to tastants (5 s events over a total of 30 min versus 48 hrs for two-bottle preference assays), and therefore has the great advantage of minimizing the impact of other sensory inputs, and post-ingestive and learning effects from the assay.
Taste behavior was assayed using a short term assay that directly measures taste preferences by counting immediate licking responses in a multi-channel gustometer (Davis MS160-Mouse gustometer; DiLog Instruments, Tallahassee, Fla.). Mice were trained and tested as described previously (Zhang, Y. et al., Cell, 112, 293-301 (2003)). Individual mice were placed in the gustometer for 30 minutes, and stimuli were presented in random order for 5 s trials that were initiated by the mouse licking the stimulus spout. […] Data points represent the mean rate that mice licked a tastant relative to their sampling of an appropriate control tastant (ratio defined as lick rate relative to control); lick suppression is defined as 1 minus the lick rate relative to control.

T1R knockout mice [2] = assay: Chorda tympani nerve recordings in wild-type and T1R knockout mice; type: in vivo, mouse; details: for physiological responses, effect of T1R knockouts: T1R1, T1R2, T1R3 knockout versus wild-type; for neural responses (chorda tympani): wild-type, T1R1, T1R2 and T1R3 knockout mice, 100 mM citric acid, 100 mM NaCl, 10 mM PROP
[3] = test system: T1R2 KO mice expressing a human T1R2 gene; assay: Behavioral taste responses of mice expressing a human T1R2 transgene; type: in vivo, mouse; details: for behavioral response to human sweet tastants: humanized T1R2 mice (T1R2 KO + hT1R2 transgene), monellin ~10 uM, thaumatin ~5 uM, aspartame 10 mM, glycyrrhizic acid 500 uM, neohesperidin dihydrochalcone 400 uM
rodents = details: 100 times higher concentrations than sweet to humans; cited from earlier work
humans = details: sub-millimolar concentrations; cited from earlier work
[4] = T1R3 KO mice, salt effects minimized

## N[C@@H](CO)C(=O)O [Ser]
T1R knockout mice [1]; T1R1 KO animals, >300 mM
  behavioral attraction: small residual attraction

## C[C@H](N)C(=O)O [Ala]
T1R knockout mice [1]; T1R1 KO animals, >300 mM
  behavioral attraction: small residual attraction

## N[C@@H](CCC(=O)O)C(=O)[O-].[Na+] [MSG, monosodium glutamate]
T1R knockout mice [2]; T1R1 and T1R3 knockouts, high concentration of salt (100 mM MSG)
  integrated chorda tympani response: residual responses are detected
T1R knockout mice [1]; T1R1 and T1R3 knockout animals, L-Asp 100 mM, AP4 30 mM
  taste preference relative to water: complete loss in preference

## O=C(O)CC(O)(CC(=O)O)C(=O)O [citric acid]
T1R knockout mice [2]
  physiological responses, effect of T1R knockouts: no significant effect
  neural responses (chorda tympani): robust neural responses
T1R knockout mice [1]
  behavioral responses, effect of T1R knockouts: no significant effect

## CC1(C)[C@@H](O[C@H]2O[C@H](C(=O)O)[C@@H](O)[C@H](O)[C@H]2O[C@@H]2O[C@H](C(=O)O)[C@@H](O)[C@H](O)[C@H]2O)CC[C@]2(C)[C@H]3C(=O)C=C4[C@@H]5C[C@@](C)(C(=O)O)CC[C@]5(C)CC[C@@]4(C)[C@]3(C)CC[C@@H]12 [glycyrrhizic acid]
[3]
  behavioral response to human sweet tastants: ability to detect and respond

## COC(=O)[C@H](Cc1ccccc1)NC(=O)[C@@H](N)CC(=O)O [aspartame] (H-Asp-Phe-OMe)
rodents
  preference in rodents: no preference
[3]; 10 mM, three independent human T1R2 transgenic lines
  behavioral attraction: displayed behavioral attraction
[3]
  behavioral response to human sweet tastants: ability to detect and respond
humans
  sweet taste to humans: taste sweet

## CCCc1cc(=O)[nH]c(=S)[nH]1 [PROP, 6-n-propyl-thiouracil]
T1R knockout mice [2]
  neural responses (chorda tympani): robust neural responses

## N[C@@H](CCC(=O)O)C(=O)O [glutamate]
T1R knockout mice [2]; [4]
  physiological (nerve) responses: profound corresponding deficit in physiological responses
T1R knockout mice [1]; [4]
  behavioral attraction: dramatic loss of behavioral attraction

## [Cl-].[Na+] [NaCl, sodium chloride]
T1R knockout mice [2]
  physiological responses, effect of T1R knockouts: no significant effect
  neural responses (chorda tympani): robust neural responses
T1R knockout mice [1]
  behavioral responses, effect of T1R knockouts: no significant effect

## C[C@@H](O)[C@H](N)C(=O)O [Thr]
T1R knockout mice [1]; T1R1 KO animals, >300 mM
  behavioral attraction: small residual attraction

B1: thaumatin (protein)
chain: ATFEIVNRCSYTVWAAASKGDAALDAGGRQLNSGESWTINVEPGTNGGKIWARTDCYFDDSGSGICKTGDCGGLLRCKRFGRPPTTLAEFSLNQYGKDYIDISNIKGFNVPMDFSPTTRGCRGVRCAADIVGQCPAKLKAPGGGCNDACTVFQTSEYCCTTGKCGPTEYSRFFKRLCPDAFSYVLDKPTTVTCPGSSNYRVTFCPTA
notes: sweet protein
rodents
  preference in rodents: no preference
[3]
  behavioral response to human sweet tastants: ability to detect and respond
humans
  sweet taste to humans: taste sweet

B2: monellin (protein)
chain 1: FREIKGYEYQLYVYASDKLFRADISEDYKTRGRKLLRFNGPVPPP
chain 2: GEWEIIDIGPFTQNLGKFAVDEENKIGQYGRLTFNKVIRPCMKKTIYEEN
notes: sweet protein
rodents
  preference in rodents: no preference
[3]
  behavioral response to human sweet tastants: ability to detect and respond
humans
  sweet taste to humans: taste sweet
